Data reported in patent US20240316146A1, “METHODS OF REDUCING NEUROPATHY AND NEUROPATHIC SYMPTOMS AND TREATING CANCER” (Bexion Pharmaceuticals Inc., priority 2021, published 2024).
Where “and” joins values, the source holds several entries; their conditions need not be identical. Equal entries are not always repeated.

Tests used:
[1] = tested on: mouse oxaliplatin model of chemotherapy-induced neuropathy; assay: Static mechanical (tactile) allodynia, von Frey filaments, Study 2; assay type: in vivo; settings: for PWT 50% (left hind paw Paw Withdrawal Threshold 50%): Group E Oxaliplatin/Pregabalin 30 mg/kg (days 3, 5, 7, 9), N 12; for Individual Paw Withdrawal Threshold 50% (von Frey filaments): Study 2, oxaliplatin 10 mg/kg IP day 0 (+vehicle, BXQ-350 2 mg/kg IP or pregabalin 30 mg/kg IP), individual mice
Method: (§1) Static mechanical tactile allodynia: Static mechanical (tactile) allodynia was assessed by measurement of withdrawal threshold using calibrated (force; g) von-Frey monofilaments (Touch-Test Sensory Evaluator; Scientific Marketing Associates) applied to the plantar surface of the left hind-paw. The animals were placed in individual Perspex boxes on a raised metal mesh for 30-40 min before the test to habituate. A series of graduated von Frey hairs (0.07, 0.16, 0.4, 0.6 and 1 g) were applied in sequence with a protocol of 1 sec on 1 sec off repeated 10 times. Each hair was applied perpendicularly to the center of the ventral surface of the paw until it bent slightly. The force applied to the hind-paw of the animal to induce 5 responses out of 10 trials was recorded as paw withdrawal threshold (PWT) 50%.
(§2) 60 adult male C57/BL6 mice (Charles River), 6-7 weeks of age, were housed in groups of 5 in Perspex cages, in a controlled environment of constant temperature and humidity (temperature: 21±1° C., light: dark cycle of 12:12 hours), with food and water available ad libitum. Animals were allowed to recover from transportation for at least one week before commencing experiments.
Static mechanical tactile allodynia: The same apparatus and protocol were used as for Study 1.

Body weights, Study 2 = assay type: in vivo, mouse; settings: Group E Oxaliplatin/Pregabalin, individual mice
Text: Body Weights: The mice were weighed daily starting 1 day prior to treatment through day 9.

[2] = tested on: mouse oxaliplatin model of chemotherapy-induced neuropathy; assay: Thermal hypersensitivity, cold plate test, Study 2; settings: Group E Oxaliplatin/Pregabalin 30 mg/kg (days 3, 5, 7, 9), N 12
Method: (§3) Thermal hypersensitivity: Thermal hypersensitivity was assessed using a dynamic cold plate (Bioseb, France) set at a fixed temperature of 15° C. This method allows analysis of more integrated behaviors rather than reflex behaviors, e.g., the tail immersion test. In animal studies, thermal sensitivity is mostly evaluated based on nociceptive reaction latencies in response to a given thermal aversive stimulus. In this classical test, the temperature of the plate is fixed and remains constant: the latency to the first paw licking, jumps or withdrawal is taken as an index of nociceptive threshold. […] The results of the study are shown in Table 5 (raw data) below, Table 6 (summary) below, FIG. 4, and FIG. 5.
as §2
Thermal hypersensitivity: The same apparatus and protocol were used as for Study 1. The results of Study 2 are shown in Table 11 (raw data), Table 12 (summary), FIG. 8, and FIG. 9.

[3] = tested on: mouse oxaliplatin model of chemotherapy-induced neuropathy; assay: Static mechanical (tactile) allodynia, von Frey filaments, Study 1; assay type: in vivo
Method: as §2, §1
(§4) Warm vials of BQX-350 were brought to room temperature and reconstituted with 4 mL water for injection via syringe. The vials were gently agitated and/or vortexed for 15-20 sec and allowed to sit at room temp for 5 mins. The rehydrated solution contained 2.2 mg/mL SapC (8.8 mg SapC per vial). About […] of the formulation was injected to achieve a target dose of 20 mg/kg in each mouse. Pregabalin was reconstituted in water and injected to achieve a target dose of 30 mg/kg in each mouse.
(§5) A two-way repeated measures ANOVA with ‘treatment’ as a between subjects effect, and ‘day’ as a within subjects effect was used (using GraphPad Prism version 9.0 for Windows, GraphPad Software, San Diego California USA), followed by Dunnett's multi comparisons test. Data is presented as mean±SEM.

[4] = tested on: mouse oxaliplatin model of chemotherapy-induced neuropathy; assay: Thermal hypersensitivity, cold plate test 15° C., Study 1; assay type: in vivo
Method: as §2, §3, §4, §5

[5] = tested on: A549 tumor spheroids with PBMCs; assay: 3D-tumor spheroid T-cell killing model (Incucyte); assay type: cell-based, human; settings: BXQ-350 1.3 nM to 2.8 μM or Pembrolizumab 50 μg/ml; PBMCs with activation cocktail; day 6
Method: A549 human lung cancer cells, transfected with a lentivirus, were seeded in 96-wells ultra-low attachment plates at a concentration of 750 cells/well. The plates were then centrifuged at 1200 rpm for 2 min, to promote agglomeration of the cells and formation of spheroids. The plates then were incubated for three days at 37° C. After three days, freshly isolated human peripheral blood mononuclear cells (PBMCs) were added to the spheroids at a concentration of 10,000 PBMCs/well. To various wells were added one or more of: an activation cocktail containing an anti-CD3 antibody at a final concentration of 1 ng/ml and IL-12 at a final concentration of 10 ng/ml; BXQ-350 in serial dilutions from 25 μM to 1.27 nM; a positive control of Pembrolizumab at 50 μg/ml. A negative control group had no additions to the spheroids and PBMCs. The final volume of each well was then adjusted to 200 μL per well.
Plates were then left to incubate for an additional 30 minutes before being placed in the Incucyte® live cells analyzer; fluorescence was analyzed every 4 hours for 6 days. Images were then analyzed using the Incucyte® software to determine the IC50. Increased fluorescence intensity in A549 tumor cell spheroids correlates to an increased number of live Luc-A549 cells in the spheroids, and a lack of fluorescence denotes cell death.

[6] = oxaliplatin 10 mg/kg IP day 0 (+vehicle, BXQ-350 20 mg/kg IP or pregabalin 30 mg/kg IP), Baseline, individual mice
[7] = oxaliplatin 10 mg/kg IP day 0 (+vehicle, BXQ-350 20 mg/kg IP or pregabalin 30 mg/kg IP), Day 3, individual mice
[8] = oxaliplatin 10 mg/kg IP day 0 (+vehicle, BXQ-350 20 mg/kg IP or pregabalin 30 mg/kg IP), group mean
[9] = oxaliplatin treated animals, day 3 to day 9, BXQ-350 20 mg/kg, pregabalin 30 mg/kg 2 hours before assessment
[10] = cold plate 15° C., oxaliplatin 10 mg/kg IP day 0 (+vehicle, BXQ-350 20 mg/kg IP or pregabalin 30 mg/kg IP), group mean

CC(C)C[C@H](CN)CC(=O)O [Pregabalin]
PWT 50% (left hind paw Paw Withdrawal Threshold 50%) ([1]; D3, mean (SEM)): ****0.933 g
PWT 50% (left hind paw Paw Withdrawal Threshold 50%) ([1]; D5, mean (SEM)): ****0.833 g
PWT 50% (left hind paw Paw Withdrawal Threshold 50%) ([1]; D7, mean (SEM)): ****0.817 g
PWT 50% (left hind paw Paw Withdrawal Threshold 50%) ([1]; D9, mean (SEM)): ****0.967 g
PWT 50% (left hind paw Paw Withdrawal Threshold 50%) ([1]; D −1, mean (SEM)): 0.697 g
PWT 50% (left hind paw Paw Withdrawal Threshold 50%) ([1]; D −2, mean (SEM)): 0.600 g
PWT 50% (left hind paw Paw Withdrawal Threshold 50%) ([1]; D −3, mean (SEM)): 0.633 g
Individual Paw Withdrawal Threshold 50% (von Frey filaments) ([1]; D 3): 1.0 g (10×) and 0.6 g (2×)
Individual Paw Withdrawal Threshold 50% (von Frey filaments) ([1]; D 5): 1.0 g (7×) and 0.6 g (5×)
Individual Paw Withdrawal Threshold 50% (von Frey filaments) ([1]; D 7): 1.0 g (7×) and 0.6 g (4×) and 0.4 g
Individual Paw Withdrawal Threshold 50% (von Frey filaments) ([1]; D 9): 1.0 g (11×) and 0.6 g
Individual Paw Withdrawal Threshold 50% (von Frey filaments) ([1]; D −1): 1.0 g (5×) and 0.6 g (4×) and 0.4 g (2×) and 0.2 g
Individual Paw Withdrawal Threshold 50% (von Frey filaments) ([1]; D −2): 0.4 g (2×) and 0.6 g (9×) and 1.0 g
Individual Paw Withdrawal Threshold 50% (von Frey filaments) ([1]; D −3): 0.6 g (8×) and 1.0 g (2×) and 0.4 g (2×)
Individual body weights (Body weights, Study 2; D 0): 21.9 g and 23.6 g (2×) and 28.1 g and 23.7 g and 25.7 g (2×) and 24.9 g and 21.8 g and 26.2 g and 23.4 g and 25.1 g
Individual body weights (Body weights, Study 2; D 1): 21.6 g and 23.0 g and 26.8 g and 22.7 g and 25.2 g and 25.1 g and 23.1 g and 24.5 g and 23.6 g and 24.8 g and 22.6 g and 24.4 g
Individual body weights (Body weights, Study 2; D 2): 21.8 g and 23.1 g and 27.0 g and 22.7 g and 25.1 g and 25.4 g and 23.8 g and 23.6 g and 23.4 g and 25.0 g and 22.8 g and 24.3 g
Individual body weights (Body weights, Study 2; D 3): 21.8 g and 23.0 g and 26.6 g and 22.6 g and 24.7 g and 25.5 g and 23.4 g and 22.4 g and 22.9 g and 24.8 g and 22.8 g and 24.0 g
Individual body weights (Body weights, Study 2; D 4): 21.8 g and 23.0 g and 27.0 g and 22.3 g and 25.0 g and 24.8 g and 23.4 g and 23.5 g and 23.7 g and 24.9 g and 23.1 g and 24.0 g
Individual body weights (Body weights, Study 2; D 5): 21.4 g and 24.0 g and 27.6 g and 22.9 g
Individual body weights (Body weights, Study 2; D −1): 21.9 g and 23.7 g and 27.9 g and 23.2 g (2×) and 23.4 g and 25.3 g and 23.3 g and 24.5 g and 24.2 g and 25.7 g and 24.8 g
Individual body weights (Body weights, Study 2; D −2): 21.9 g and 23.1 g and 27.6 g and 22.7 g and 25.6 g and 25.9 g and 23.3 g and 24.6 g and 23.8 g and 25.4 g and 22.8 g and 24.4 g
Individual body weights (Body weights, Study 2; D −3): 22.0 g and 23.0 g (4×) and 28.0 g and 26.0 g (3×) and 25.0 g (2×) and 24.0 g
Latency to withdrawal behaviour in the cold plate test (15° C.) ([2]; D3, mean (SEM)): ***77.083 + s
Latency to withdrawal behaviour in the cold plate test (15° C.) ([2]; D5, mean (SEM)): 31.188 + s
Latency to withdrawal behaviour in the cold plate test (15° C.) ([2]; D7, mean (SEM)): *42.792 + s
Latency to withdrawal behaviour in the cold plate test (15° C.) ([2]; D9, mean (SEM)): 42.063 + s
Latency to withdrawal behaviour in the cold plate test (15° C.) ([2]; D −1, mean (SEM)): 43.175 + s
Latency to withdrawal behaviour in the cold plate test (15° C.) ([2]; D −2, mean (SEM)): 44.725 + s
Latency to withdrawal behaviour in the cold plate test (15° C.) ([2]; D −3, mean (SEM)): 43.908 + s
Individual Paw Withdrawal Threshold 50% (von Frey filaments) [3, 6]: 0.8 g (4×) and 0.6 g (2×) and 1.0 g (2×) and 0.4 g (2×) and 0.7 g and 0.5 g
Individual Paw Withdrawal Threshold 50% (von Frey filaments) [3, 7]: 1.0 g (3×) and 0.6 g
PWT 50% (g) Baseline [3, 8]: 0.698 g
PWT 50% (g) D3 [3, 8]: *0.733 g
PWT 50% (g) D5 [3, 8]: ***0.800 g
PWT 50% (g) D7 [3, 8]: **0.733 g
PWT 50% (g) D9 [3, 8]: ****0.883 g
mechanical allodynia (in words) [3, 9]: reduced mechanical allodynia
Latency (s) Baseline [4, 10]: 53.629 s
Latency (s) D 3 [4, 10]: 49.400 s
Latency (s) D 5 [4, 10]: 50.000 s
Latency (s) D 7 [4, 10]: 47.183 s
Latency (s) D 9 [4, 10]: 59.300 s
Individual latency to displaying withdrawal behaviour in the cold plate test [4, 6]: 52.9 s and 74.9 s and 74.7 s and 57.3 s and 48.6 s and 40.2 s and 57.5 s and 67.5 s and 38.5 s and 44.8 s and 41.3 s and 45.6 s
Individual latency to displaying withdrawal behaviour in the cold plate test [4, 7]: 56.7 s and 52.4 s and 44.4 s and 62.3 s and 57.6 s and 46.9 s and 63.6 s and 40.8 s and 58.2 s and 36.5 s and 52.5 s and 20.9 s
Individual latency to displaying withdrawal behaviour in the cold plate test ([4]; oxaliplatin 10 mg/kg IP day 0 (+vehicle, BXQ-350 20 mg/kg IP or pregabalin 30 mg/kg IP), Day 5, individual mice): 22.2 s and 43.5 s and 91.7 s and 73.6 s and 41.5 s and 39.3 s and 61.3 s and 40.1 s and 30.1 s and 42.7 s and 45.2 s and 68.8 s
Individual latency to displaying withdrawal behaviour in the cold plate test ([4]; oxaliplatin 10 mg/kg IP day 0 (+vehicle, BXQ-350 20 mg/kg IP or pregabalin 30 mg/kg IP), Day 7, individual mice): 60.2 s and 40.3 s and 72.5 s and 98.2 s and 55.5 s and 29.3 s and 32.1 s and 35.2 s and 35.8 s and 32.5 s and 31.4 s and 43.2 s
Individual latency to displaying withdrawal behaviour in the cold plate test ([4]; oxaliplatin 10 mg/kg IP day 0 (+vehicle, BXQ-350 20 mg/kg IP or pregabalin 30 mg/kg IP), Day 9, individual mice): 37.8 s and 71.7 s and 75.8 s and 54.0 s and 72.7 s and 34.6 s and 84.7 s and 71.5 s and 74.9 s and 42.7 s and 38.9 s and 52.3 s
thermal (cold) sensitivity, cold plate test (in words) [4, 9]: reduced thermal sensitivity

Pembrolizumab: positive control at 50 μg/ml in the spheroid model
cell death of spheroids (in words) [5]: increased cell death by day 6
